Measurements published in patent US20070248950A1, “Supported polydiacetylene 3-D arrays for flourescent or phosphorescent detection” (Analytical Biological Services, Inc., priority 2006, published 2007).

Target: Bee venom phospholipase A2 (PLA2) (Apis mellifera, UniProt P00630)
Type: biochemical

Sequence of Bee venom phospholipase A2 (PLA2) (P00630 34-167 limits assumed): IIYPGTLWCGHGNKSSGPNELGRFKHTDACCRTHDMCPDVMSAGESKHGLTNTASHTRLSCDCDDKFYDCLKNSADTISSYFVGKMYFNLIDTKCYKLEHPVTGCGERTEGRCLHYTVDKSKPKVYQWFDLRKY

CC(=O)O[C@H]1C[C@@H]2[C@@]3(C)CCCC(C)(C)[C@@H]3CC[C@@]2(C)[C@@H]2CC=C(C=O)[C@H](C=O)[C@@]12C [schalaradiol, 12-epi-scalaradial]
inhibition of PLA2 activity (rise in emission at 640 nm of supported liposomes): partial inhibition
